Results as given in paper PMC8306876, “A New N-Substituted 1H-Isoindole-1,3(2H)-Dione Derivative—Synthesis, Structure and Affinity for Cyclooxygenase Based on In Vitro Studies and Molecular Docking” (International Journal of Molecular Sciences, 2021).
“And” between values parts separate entries of the source, which are not always exact repeats. Equal values may be shown once. Marks after values point to notes of the source that are not given here.

Columns and labels:
[1] = target: T1, COX-1 (Ovis aries, UniProt P05979); experiment: Cyclooxygenase inhibition assay (Cayman kit No. 701050, COX peroxidase activity), COX-1; assay type: biochemical; conditions: incubation for 2 min; mean (SD); n = 3
T1 construct: purchased Cayman 701050
T1 sequence (P05979 25-600): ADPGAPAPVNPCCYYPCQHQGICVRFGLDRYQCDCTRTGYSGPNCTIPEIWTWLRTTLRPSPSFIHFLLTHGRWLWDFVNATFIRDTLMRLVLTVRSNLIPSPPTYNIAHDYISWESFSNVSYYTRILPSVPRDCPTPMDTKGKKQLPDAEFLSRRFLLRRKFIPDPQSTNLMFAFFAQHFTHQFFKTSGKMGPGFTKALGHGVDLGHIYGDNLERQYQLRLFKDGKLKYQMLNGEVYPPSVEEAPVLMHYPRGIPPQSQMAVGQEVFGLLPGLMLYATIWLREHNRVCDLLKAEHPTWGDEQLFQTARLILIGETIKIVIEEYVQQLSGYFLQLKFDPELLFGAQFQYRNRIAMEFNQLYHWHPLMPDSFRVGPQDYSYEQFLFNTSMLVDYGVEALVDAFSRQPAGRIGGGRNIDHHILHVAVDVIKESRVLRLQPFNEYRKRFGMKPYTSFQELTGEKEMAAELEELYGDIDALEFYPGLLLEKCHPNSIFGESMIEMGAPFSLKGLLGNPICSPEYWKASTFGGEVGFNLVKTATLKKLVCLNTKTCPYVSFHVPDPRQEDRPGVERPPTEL
Description: Cayman kit No. 701050 was used to evaluate the COX peroxidase activity of all compounds at a concentration of 100 µM. Absorbance was measured with a microplate reader at 590 nm. Concentrations at which 50% inhibition of enzyme activity occurred were calculated separately for COX-1 and COX-2 (IC50). Ratios of IC50 values (COX-2/COX-1) were also calculated

[2] = test system: NHDF cells; experiment: RNS (NO) level, Griess reagents after LPS preincubation; assay type: cell-based; conditions: 100 µM compound for 1 h after 24 h with 50 µM LPS; (SD) n = 6
Description: (§1) The ROS and RNS were evaluated using DCF–DA assay and Griess reagents, respectively. First, the cells were incubated with 50 µM LPS for 24 h to induce cell stress. Then, after the cells were washed, the 100 µM tested compounds were added for 1 h. Finally, the 50 µL supernatant was transferred to a new plate and added 50 µL of mixture A (1% sulfanilamide in 5% phosphoric acid) and B (0.1% N-(1-Naphthyl)ethylenediamine dihydrochloride) Griess reagents in a volume ratio 1:1 for 20 min in the dark. After that time, the absorbance was measured at 540 nm using a microplate reader. Simultaneously, the rest of the supernatant was removed from the above cell cultures, and 25 µM DCF–DA solution in MEM (without serum and phenol red) was added and left at 37 °C for 1 h and finally, determined fluorometrically with excitation at 485 nm and emission at 535 nm using a microplate reader.
(§2) The NO level was presented as concentration calculated using a standard curve (prepared in parallel with the conducted research). The ROS level was shown as ratio E/E0, where E0 is fluorescence with the positive control (cells incubated with 50 µM LPS) and E is a fluorescence with tested compound at 100 µM. Finally, the DNA damage was calculated as the ratio of cell nucleus diameter to halo diameter (a measure of DNA damage).
(§3) All statistical analysis performed were compared to the control—healthy cells (MTT assay), and positive control (incubated with 50 µM LPS) for DCF–DA, Griess, and DNA damaged. The data have a normal distribution and equality of variance, so ANOVA and post-hoc Scheffe methods were performed. The significance level was set at p < 0.05.

[3] = test system: NHDF cells; experiment: DNA damage (chromatin relaxation, nucleus/halo diameter) after LPS preincubation; assay type: cell-based; conditions: ratio of cell nucleus diameter to halo diameter; 1 h with compound after 24 h with 50 µM LPS; (SD) n = 6
Description: However, the cells were detached at the surface after 1h of incubation with the tested compound for evaluating DNA damage. The cells were then subjected to an analogous procedure as described in Grajzer et al..
as §2, §3

[4] = target: T2, COX-2 (Homo sapiens, UniProt P35354); experiment: Cyclooxygenase inhibition assay (Cayman kit No. 701050, COX peroxidase activity), COX-2; assay type: biochemical; conditions: for IC50: incubation for 2 min, mean (SD), n = 3; for Ratio: COX-2/COX-1: ratio of IC50 values (COX-2/COX-1)
T2 construct: purchased Cayman 701050
T2 sequence (P35354 18-604): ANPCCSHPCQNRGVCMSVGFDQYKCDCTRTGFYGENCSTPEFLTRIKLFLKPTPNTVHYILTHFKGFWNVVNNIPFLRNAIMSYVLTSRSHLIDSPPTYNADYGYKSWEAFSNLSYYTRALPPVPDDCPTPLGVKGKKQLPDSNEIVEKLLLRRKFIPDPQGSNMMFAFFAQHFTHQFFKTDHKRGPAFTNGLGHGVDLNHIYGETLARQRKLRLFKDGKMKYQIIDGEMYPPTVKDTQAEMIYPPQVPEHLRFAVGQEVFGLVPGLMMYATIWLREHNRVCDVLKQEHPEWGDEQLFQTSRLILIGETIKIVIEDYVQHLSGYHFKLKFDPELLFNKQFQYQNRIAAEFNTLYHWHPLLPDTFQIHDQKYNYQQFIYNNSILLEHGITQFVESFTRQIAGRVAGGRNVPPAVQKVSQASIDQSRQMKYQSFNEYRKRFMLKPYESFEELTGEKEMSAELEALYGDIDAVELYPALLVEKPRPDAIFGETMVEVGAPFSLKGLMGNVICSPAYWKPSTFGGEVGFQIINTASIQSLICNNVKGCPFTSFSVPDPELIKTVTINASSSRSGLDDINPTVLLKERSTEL
Description: Absorbance was measured with a microplate reader at 590 nm. […] Ratios of IC50 values (COX-2/COX-1) were also calculated

[5] = test system: NHDF cells; experiment: Cell viability, MTT assay; assay type: cell-based; conditions: Homo sapiens, NHDF cell cultures, 24 h incubation, read-out: Cell Viability IC50 (µM) (SD)
Description: The NHDF cells obtained from ATCC (Manasas, VA, USA) were incubated with DMEM without phenol red supplemented with 10% fetal bovine serum (FBS), 2 mM L-glutamine, 1.25 µg/mL amphotericin B and 100 µg/mL gentamicin at 37 °C in a humidified 5% CO2/95% air atmosphere incubator. The cell culture was examined under the microscope twice a week, and cells were passaged if confluence was greater than 70% or the medium was replaced with fresh medium.
The […] were prepared by dissolving compounds in DMSO and then stored at −20 °C for up to 6 months. Before the biological experimental, the working solution was dissolved in the medium in the concentration range of 10, 50, and 100 µM.
To evaluated cell viability, an MTT assay was performed. After incubation of cells with the tested compounds for 24 h, the supernatant was removed, and 1 mg/mL MTT solution was applied for 2 h. Next, the formazan was dissolved with propanol for 30 min, and absorbance was measured at 570 nm using a microplate reader. The results are presented as IC50.

[6] = test system: NHDF cells; experiment: ROS level, DCF-DA assay after LPS preincubation; assay type: cell-based; conditions: 100 µM compound after LPS preincubation
Description: as §1, §2, §3

Row | SMILES | IC50 [1] | melting point | IC50 [4] | Ratio: COX-2/COX-1 [4] | NO Level (pg/mL) [2] | DNA Damage [3] | IC50 [5] | scavenging of ROS compared to control [6]
1 | O=C1c2ccccc2C(=O)N1CN1CCN(c2ccccc2)CC1 [A, N-[(4-phenyl-1-piperazinyl)methyl]-1H-isoindole-1,3(2H)-dione] | 238 µM | 160 to 161 °C | 107 µM | 0.45 | 6.4 (0.14) pg/mL | 15.2 (0.04) * |  | 
2 | COc1ccccc1N1CCN(CN2C(=O)c3ccccc3C2=O)CC1 [B, N-[(4-(2-methoxyphenyl)-1-piperazinyl)methyl]-1H-isoindole-1,3(2H)-dione] | 71 µM | 134 to 135 °C | 68.5 µM | 1.10 and 0.96 |  | 19.6 (0.09) * |  | 
3 | O=C1c2ccccc2C(=O)N1CN1CCN(c2cccc(C(F)(F)F)c2)CC1 [Compound C] | 104 µM | 147 to 148 °C | 70.3 µM | 0.67 | 8.2 (0.03) * pg/mL | 23.2 (0.07) * |  | 
4 | O=C1c2ccccc2C(=O)N1CN1CCN(C(c2ccccc2)c2ccccc2)CC1 [Compound D, N-[(4-(diphenyl-methyl)-1-piperazinyl)methyl]-1H-isoindole-1,3(2H)-dione] | 66.2 µM | 206 to 207 °C | 72.8 µM | 1.10 | 7.4 (0.12) pg/mL | 17.3 (0.04) * | 90.3 µM | 
5 | O=C(CN1C(=O)c2ccccc2C1=O)N1CCN(c2cccc(C(F)(F)F)c2)CC1 [F, 2-{2-oxo-2-[4-(3-trifluoromethyl)-phenyl-1-piperazinyl]ethyl}-1H-isoindole-1,3(2H)-dione] | 171 µM | 206 to 208 °C | 47.6 µM | 0.28 | 9.1 (0.07) pg/mL | 20.1 (0.03) * |  | 
6 | COc1ccccc1N1CCN(C(=O)CN2C(=O)c3ccccc3C2=O)CC1 [G, 2-{2-oxo-2-[4-(2-methoxy)-phenyl-1-piperazinyl]ethyl}-1H-isoindole-1,3(2H)-dione] | 101 µM | 152 to 154 °C | 65.8 µM |  |  | 18.7 (0.07) * | 96.8 µM | approximately 29.0%

Now from value to compound, other results behind:

Row | IC50 [1] | melting point | IC50 [4] | Ratio: COX-2/COX-1 [4] | SMILES | NO Level (pg/mL) [2] | DNA Damage [3] | IC50 [5] | scavenging of ROS compared to control [6]
7 | 176 µM | 155 to 156 °C | 43.8 µM | 0.25 | COc1cccc(N2CCN(C(=O)CN3C(=O)c4ccccc4C3=O)CC2)c1 [Compound H, 2-{2-oxo-2-[4-(3-methoxy)-phenyl-1-piperazinyl]ethyl}-1H-isoindole-1,3(2H)-dione] |  | 17.1 (0.04) * | 94.1 µM | approximately 29.0%
8 | 94.4 µM | 204 to 207 °C | 46.2 µM | 0.49 | COc1ccc(N2CCN(C(=O)CN3C(=O)c4ccccc4C3=O)CC2)cc1 [Compound I, 2-{2-oxo-2-[4-(4-methoxy)-phenyl-1-piperazinyl]ethyl}-1H-isoindole-1,3(2H)-dione] |  | 19.2 (0.08) * | 93.3 µM | approximately 29.0%
9 | 76.7 µM | 180 °C | 53.4 µM | 0.70 | O=C(CN1C(=O)c2ccccc2C1=O)N1CCN(c2ccccc2)CC1 [E, 2-[2-oxo-2-(4-phenyl-1-piperazinyl)ethyl]-1H-isoindole-1,3(2H)-dione] | 5.3 (0.07) * pg/mL | 18.4 (0.07) * |  | 
